The subject of experiment [1] is P2Y1 receptor. In words: Frontal affinity chromatography on CMAC. Format: binding, human.
The target of experiment [2] is T1, histamine 1 receptor (H1R) (Homo sapiens, UniProt P35367). In words: Frontal affinity chromatography, competitive displacement on CMAC. Format: binding. Conditions: CMAC(1321N1P2Y1); marker 50 pM [3H]-mepyramine; 10 μM 2-MeSADP in mobile phase.
For experiment [3], the target named is T1, histamine 1 receptor (H1R). The note with it: cellular membrane binding studies; data not shown.
Experiment [4] has as its target T1, histamine 1 receptor (H1R). Format: binding. Conditions: histamine subtype selectivity; data not shown.
Experiment [5] concerns the target P2Y1 receptor (Homo sapiens, UniProt P47900). In words: Frontal affinity chromatography, competitive displacement on CMAC. Format: binding. Conditions: CMAC(1321N1P2Y1); marker 1 nM [3H]-2-MeSADP; 1 μM mepyramine in mobile phase.

T1 sequence (P35367 whole entry): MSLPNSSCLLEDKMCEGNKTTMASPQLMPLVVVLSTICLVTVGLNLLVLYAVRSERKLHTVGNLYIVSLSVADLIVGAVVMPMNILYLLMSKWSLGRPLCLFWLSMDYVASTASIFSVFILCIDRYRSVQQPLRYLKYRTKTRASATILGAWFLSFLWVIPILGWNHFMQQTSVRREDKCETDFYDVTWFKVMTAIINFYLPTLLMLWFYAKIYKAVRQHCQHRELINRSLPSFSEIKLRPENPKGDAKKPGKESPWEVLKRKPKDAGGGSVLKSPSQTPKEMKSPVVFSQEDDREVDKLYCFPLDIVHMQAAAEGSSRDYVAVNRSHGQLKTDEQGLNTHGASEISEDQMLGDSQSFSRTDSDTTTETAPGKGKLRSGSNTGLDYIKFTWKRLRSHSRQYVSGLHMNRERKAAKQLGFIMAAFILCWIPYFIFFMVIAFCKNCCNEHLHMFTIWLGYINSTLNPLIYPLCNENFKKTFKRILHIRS
P2Y1 receptor (Homo sapiens, UniProt P47900), sequence (P47900 whole entry): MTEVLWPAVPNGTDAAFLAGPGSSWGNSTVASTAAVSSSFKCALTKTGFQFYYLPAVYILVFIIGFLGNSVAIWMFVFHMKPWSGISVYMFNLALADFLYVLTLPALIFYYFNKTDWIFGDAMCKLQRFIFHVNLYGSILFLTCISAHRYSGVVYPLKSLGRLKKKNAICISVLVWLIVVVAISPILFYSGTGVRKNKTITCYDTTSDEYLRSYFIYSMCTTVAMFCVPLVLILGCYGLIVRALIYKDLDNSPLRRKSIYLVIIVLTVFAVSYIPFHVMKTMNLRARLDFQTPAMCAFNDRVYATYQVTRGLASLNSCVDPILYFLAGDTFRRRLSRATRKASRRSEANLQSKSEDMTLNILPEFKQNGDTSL

With `CSc1nc(N)c2ncn([C@@H]3O[C@H](COP(=O)(O)OP(=O)(O)O)[C@@H](O)[C@H]3O)c2n1` [2-MeSADP], in experiment [1] (P2Y1, non-transfected 1321N1 membranes), the “CMAC(1321N1) Kd” value was “No binding”. In experiment [1] ([3H]-2-MeSADP added to the mobile phase), the “specific retention on CMAC(1321N1) column” value was “no specific retention”. In addition, in experiment [2], the “effect on the breakthrough volume of mepyramine” value is reported as “no effect”.

4-methylhistamine: the “specific binding to 1321N1 cellular membranes” value in experiment [3] was “did not specifically bind”. The “specific retention on CMAC(1321N1) column” value in experiment [4] is reported as “No specific retention”.

In the case of `COc1ccc(CN(CCN(C)C)c2ccccn2)cc1` [Mepyramine, mepyramine], the “effect on the breakthrough volume of 2-MeSADP” value in experiment [5] was “no effect”.

The values are drawn from article PMC4605401 (Journal of pharmaceutical and biomedical analysis, 2009).
